This is an account of results in PMC10077475, “DG9-conjugated morpholino rescues phenotype in SMA mice by reaching the CNS via a subcutaneous administration” (JCI Insight, 2023).

The subject of data set [1] is SMN2 (ISS-N1 intron 7). In words: FL-SMN2 expression relative to Δ7 SMN2 transcripts by RT-qPCR in tissues of severe SMA mice. The settings on record: both doses (40 and 80 mg/kg s.c. at PD0), tissues at PD7, peripheral and CNS tissues, RT-qPCR ΔΔCt. The data set is classed as in vivo, mouse. How it is done:
To evaluate the change of FL-SMN2 expression relative to Δ7 SMN2 transcripts, we used real-time quantitative PCR (RT-qPCR) at PD7; the mice were treated with DG9-PMO at PD0. In both doses, DG9-PMO treatment led to a 4- to 30-fold higher FL-SMN2 expression than NT control in both peripheral and CNS tissues (Figure 2A and Supplemental Figure 3A). It also led to a ~5-fold increase in FL-SMN2 expression when compared with unconjugated PMO, MOE, and R6G-PMO treatments in the majority of the tissues (Figure 2A, Supplemental Figure 3A, and Supplemental Figure 1F). […] SMN levels were higher in CNS tissues in the DG9-PMO–treated than MOE-treated mice, though no statistical significance was seen. […] SMN levels were similar in DG9-PMO and MOE in the tissues collected from mice at PD30.
Injections were carried out using a 30-gauge Hamilton syringe. SMA mice identified following genotyping were randomly assigned to a treatment group. […]
(§1) Frozen tissues harvested at PD7 were sectioned using a cryostat (Leica CM 1950) into 20 μm sections. […] The relative gene expression for FL-SMN2 over the deletion of SMN2 transcripts without exon 7 was normalized to the NT control samples and analyzed using the ΔΔCt method. The expression of denervation markers relative to 18S was normalized to the healthy heterozygous control samples collected at PD30 and analyzed using the ΔΔCt method.

The subject of data set [2] is severe SMA mouse model. In words: Body weight of SMA mice at PD7. The data set is classed as in vivo. How it is done:
Injections were carried out using a 30-gauge Hamilton syringe. SMA mice identified following genotyping were randomly assigned to a treatment group. The researcher injecting mice was blinded to the treatment. SMA neonates were subcutaneously injected with 40 or 80 mg/kg of AOs at PD0, while NT and heterozygous control mice were injected with saline (n = 10–49) per group. Tissues including the quadriceps muscle, liver, kidney, spleen, diaphragm, intercostal muscle, heart, brain, and spinal cord were collected and snap-frozen in dry ice– cooled isopentane, then subsequently stored at –80°C.

Data set [3] relates to severe SMA mouse model. The data set is described as follows: Hind limb suspension (HLS) assay (tube test). The data set is classed as in vivo. The conditions noted are these: 40 mg/kg s.c. at PD0, PD2–PD12. The text has this: To evaluate the effects of systemic DG9-PMO treatment on muscle strength and the function of motor neurons, we used several functional tests and compared motor function in the treated and NT mice at various time points. We performed the hind limb suspension (HLS) assay and the righting reflex test during the early weeks of life. […] It should be noted that the results beyond PD12 are biased, as only the healthiest unconjugated PMO–, MOE-, and R6G-PMO–treated mice survived to these time points.
This test was performed on neonatal mice PD2–PD12 as described in Treat NMD protocol SMA_M.2.2.001 ([72]). Briefly, neonatal mice were suspended on their hind limbs from a tube. They were scored based on the position of the hind limbs and their latency to fall was recorded with a 30-second cutoff. Each neonatal pup underwent 3 trials, with a 15-minute break between each trial. The average score was noted by the observer under a blinded test protocol.

The nature of data set [4]: ELISA, PMO uptake in mild SMA model (F0 mice) injected at PD5. The data set is classed as in vivo, mouse. The settings on record: 40 mg/kg s.c. at PD5, tissues at PD7, ELISA. An excerpt: (§2) To target the motor neurons in the CNS via systemic administration, AOs need to cross the BBB in patients with SMA. For this study, we used a milder SMA model (F0) (Smn^–/– SMN2^+/+) with 4 SMN2 copies obtained from Jackson Laboratory (JAX 005058) that are viable, are fertile, and have shortened, thick tails since severe SMA model mice have a median survival of only 8 days, making it difficult to evaluate the treatment efficacy when the BBB is mature. […] To determine the ability of DG9-PMO to reach the CNS, we subcutaneously injected 40 mg/kg or 80 mg/kg fluorescently tagged DG9-PMO into F0 mice at PD0 or PD5. […] We also performed an ELISA to examine the biodistribution of unconjugated PMO and DG9-PMO at PD7.
ELISA was performed as described previously ([51], [69]). In brief, protein was extracted from frozen tissue sections (~20 μm) using RIPA buffer with cOmplete, Mini, EDTA-free protease inhibitor cocktail. The probes (Integrated DNA Technologies) were designed complementary to the PMO sequence with phosphorothioated backbones at the 5′ and 3′ ends. The 5′ and 3′ ends were labeled with digoxigenin and biotin, respectively. […] Attophos AP Fluorescent Substrate (Promega) was added to the PMO/DG9-PMO probes, and fluorescence was detected at 444 nm excitation and 555 nm emission by using a monochromator SpectraMax M3 plate reader (Molecular Devices).

The subject of data set [5] is SMN2 (ISS-N1 intron 7). In words: FL-SMN2 expression by RT-qPCR in mild SMA model (F0 mice). The data set is classed as in vivo, mouse. The settings on record: s.c. at PD5; PD7 (40 mg/kg) and PD13 (80 mg/kg).
Text: as §2, §1
For orientation: Real-time PCR tracks product formation cycle by cycle.

Turning to `CC(=O)N[C@@H](Cc1ccc(O)cc1)C(=O)N[C@@H](C)C(=O)N[C@H](CCCNC(=N)N)C(=O)N[C@H](C(=O)N[C@@H](CCCNC(=N)N)C(=O)N[C@@H](CCCNC(=N)N)C(=O)N[C@H](CCCNC(=N)N)C(=O)NCC(=O)N1CCC[C@H]1C(=O)N[C@@H](CCCNC(=N)N)C(=O)NCC(=O)N[C@@H](Cc1ccc(O)cc1)C(=O)N[C@@H](C)C(=O)N[C@H](CCCNC(=N)N)C(=O)N[C@H](C(=O)N[C@@H](CCCNC(=N)N)C(=O)N[C@@H](CCCNC(=N)N)C(=O)N[C@H](CCCNC(=N)N)C(=O)NCC(=O)N1CCC[C@H]1C(=O)N[C@@H](CCCNC(=N)N)C(=O)N[C@H](CCCNC(=N)N)C(=O)N1C[C@@H](COP(=O)(N(C)C)N2C[C@@H](COP(=O)(N(C)C)N3C[C@@H](COP(=O)(N(C)C)N4C[C@@H](COP(=O)(N(C)C)N5C[C@@H](COP(=O)(N(C)C)N6C[C@@H](COP(=O)(N(C)C)N7C[C@@H](COP(=O)(N(C)C)N8C[C@@H](COP(=O)(N(C)C)N9C[C@@H](COP(=O)(N(C)C)N%10C[C@@H](COP(=O)(N(C)C)N%11C[C@@H](COP(=O)(N(C)C)N%12C[C@@H](COP(=O)(N(C)C)N%13C[C@@H](COP(=O)(N(C)C)N%14C[C@@H](COP(=O)(N(C)C)N%15C[C@@H](COP(=O)(N(C)C)N%16C[C@@H](COP(=O)(N(C)C)N%17C[C@@H](COP(=O)(N(C)C)N%18C[C@@H](COP(=O)(N(C)C)N%19CCC(C(N)=O)CC%19)O[C@@H](n%19cc(C)c(=O)[nH]c%19=O)C%18)O[C@@H](n%18ccc(N)nc%18=O)C%17)O[C@@H](n%17cnc%18c(N)ncnc%18%17)C%16)O[C@@H](n%16ccc(N)nc%16=O)C%15)O[C@@H](n%15cc(C)c(=O)[nH]c%15=O)C%14)O[C@@H](n%14cc(C)c(=O)[nH]c%14=O)C%13)O[C@@H](n%13cc(C)c(=O)[nH]c%13=O)C%12)O[C@@H](n%12ccc(N)nc%12=O)C%11)O[C@@H](n%11cnc%12c(N)ncnc%12%11)C%10)O[C@@H](n%10cc(C)c(=O)[nH]c%10=O)C9)O[C@@H](n9cnc%10c(N)ncnc%109)C8)O[C@@H](n8cnc9c(N)ncnc98)C7)O[C@@H](n7cc(C)c(=O)[nH]c7=O)C6)O[C@@H](n6cnc7c(=O)[nH]c(N)nc76)C5)O[C@@H](n5ccc(N)nc5=O)C4)O[C@@H](n4cc(C)c(=O)[nH]c4=O)C3)O[C@@H](n3cnc4c(=O)[nH]c(N)nc43)C2)O[C@@H](n2cnc3c(=O)[nH]c(N)nc32)C1)C(C)C)C(C)C` (stereo partly drawn) [DG9-PMO], in the data set with SMN2 (ISS-N1 intron 7) [1], the “FL-SMN2 expression (relative to Δ7 SMN2), fold higher than NT control” value is reported as 4- to 30 fold. Moreover, in the data set with severe SMA mouse model [2] (40 mg/kg s.c. at PD0), the “body weight at PD7 versus R6G-PMO” value is given as “weighed significantly more than R6G-PMO–treated neonates”. For the same compound, the “body weight at PD7” value in the data set with severe SMA mouse model [2] (both doses (40 and 80 mg/kg) s.c. at PD0) is “significantly heavier than the NT and unconjugated PMO–treated littermates”. In addition, the “hind limb strength (HLS score)” value with severe SMA mouse model [3] is “hind limb strength comparable to the Hets at PD12”. Moreover, the “uptake of PMO versus unconjugated PMO, mild SMA model (F0)” value in data set [4] was “significantly increased the uptake of PMO in the CNS and peripheral tissues”. The “FL-SMN2 expression, mild SMA model (F0)” value in the data set on SMN2 (ISS-N1 intron 7) [5] is “significant increase in the FL-SMN2 expression in both the CNS and peripheral tissues”.
